Laboratory results: US4613666A, “Neplanocin A derivatives” (Toyo Jozo Kabushiki Kaisha, priority 1980, dated 1986)
In brackets after ≈: the same amount, converted by molar mass.

Key:
L 5178 Y cells = test: growth-inhibitory activity on mouse lymphoma L 5178 Y cells (MIC); type: cell-based; settings: 5×10^4 /ml, Fischer's medium with 10% bovine serum, 37° C., 22 hours, phenol red color change, read-out: MIC (minimum inhibitory concentration on cell growth)
Experimental: The growth-inhibitory activities of compound [I] of the present invention on L 5178 Y cells are shown below. (1) Test method:
A test sample (0.3 ml) dissolved in a medium [bovine serum (10%) in Fischer's medium] is added to a mouse lymphoma L 5178 Y cells suspension (2.7 ml, 5×10^4 /ml cells), and the mixture is incubated at 37° C. for 22 hours. Cell-growth is observed by checking the color change of phenol red in the medium. The minimum inhibitory concentration (MIC) of the substance on cell growth is defined by observing apparent growth inhibition as compared with that of control.

[1] = earlier applications cited; cited from earlier work
plant pathogenic fungi = settings: earlier applications cited; cited from earlier work

Compound	MIC (L 5178 Y cells) [µg/mL]	antitumor activity [1]	inhibitory action for plant pathogenic fungi (plant pathogenic fungi)
CC(=O)OCC1=C[C@@H](n2cnc3c(N)ncnc32)[C@H](OC(C)=O)[C@@H]1OC(C)=O [2',3',5'-Otriacetyl nephlanocin A, 2',3',5'-O-triacetyl neplanocin A]	0.8 (≈ 2.05 µM)	–	–
Nc1ncnc2c1ncn2[C@@H]1C=C(CO)[C@H]2OC(c3ccccc3)O[C@H]21 (some centres unmarked) [2',3'-Obenzylidene neplanocin A, 2',3'-O-benzylidene neplanocin A]	4 (≈ 11.4 µM)	–	–
O=C(Nc1ncnc2c1ncn2[C@@H]1C=C(COC(=O)c2ccccc2)[C@@H](O)[C@H]1O)c1ccccc1 [N^6,5'-Odibenzoyl neplanocin A, N^6,5'-O-dibenzoyl neplanocin A]	0.16 (≈ 0.339 µM)	–	–
O=C(OCC1=C[C@@H](n2cnc3c(N(C(=O)c4ccccc4)C(=O)c4ccccc4)ncnc32)[C@H](O)[C@@H]1O)c1ccccc1 [N^6,N^6,5'-Otribenzoyl neplanocin A, N^6,N^6 5'-O-tribenzoyl neplanocin A]	0.16 (≈ 0.278 µM)	–	–
Nc1ncnc2c1ncn2[C@@H]1C=C(CO)[C@@H](O)[C@H]1O [Neplanocin A]	–	antitumor activity	inhibitory action for plant pathogenic fungi
O=C(Nc1ncnc2c1ncn2[C@@H]1C=C(CO)[C@@H](O)[C@@H]1I)c1ccccc1 [R1=COPh, R4=I, R5=H, R6=H, N^6-benzoyl-2'-(R)-iodo-2'-deoxy neplanocin A]	100 (≈ 210 µM)	–	–
Nc1ncnc2c1ncn2[C@@H]1C=C(CO)[C@@H](O)[C@@H]1Br [R1=H, R4=Br, R5=H, R6=H, 2'-(R)-bromo-2'-deoxy neplanocin A]	4 (≈ 12.3 µM)	–	–
CC(=O)OCC1=C[C@@H](n2cnc3c(N)ncnc32)[C@@H](Cl)[C@@H]1OC(C)=O [R1=H, R4=Cl, R5=Ac, R6=Ac, 2'-(R)-chloro-2'-deoxy-3 '-O,5'-O-diacetyl neplanocin A]	100 (≈ 273 µM)	–	–
Nc1ncnc2c1ncn2[C@@H]1C=C(CO)[C@@H](O)[C@@H]1Cl [R1=H, R4=Cl, R5=H, R6=H, 2'-(R)-chloro-2'-deoxy neplanocin A]	20 (≈ 71 µM)	–	–
Nc1ncnc2c1ncn2[C@@H]1C=C(CO)[C@@H](O)C1 [R1=H, R4=H, R5=H, R6=H, 2'-deoxy neplanocin A]	4 (≈ 16.2 µM)	–	–
Nc1ncnc2c1ncn2[C@@H]1C=C(CO)[C@@H](O)[C@@H]1I [R1=H, R4=I, R5=H, R6=H, 2'-(R)-iodo-2'-deoxy neplanocin A]	4 (≈ 10.7 µM)	–	–
[N-]=[N+]=N[C@H]1[C@H](O)C(CO)=C[C@H]1n1cnc2c(N)ncnc21 [R1=H, R4=N3, R5=H, R6=H, 2'-(R)-azide-2'-deoxyneplanocin A]	100 (≈ 347 µM)	–	–
Nc1ncnc2c1ncn2[C@@H]1C=C(CO)[C@@H](O)[C@@H]1N [R1=H, R4=NH2, R5=H, R6=H, 2'-(R)-amino-2'-deoxy neplanocin A acetate]	4	–	–
